Laboratory results from US10954214B2 (Janssen Pharmaceutica NV, priority 2016, dated 2021).

Experiments:
[1] = tested on: IL10 secretion by TMD8 ABC-DLBCL cells; test: Human IL10 Mesoscale assay (TMD-8); format: cell-based; conditions: Homo sapiens, TMD8; TMD-8 cells, 24 h
Outline: (§1)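 100,000 cells/well treated with compound in 9 twofold steps from 15 μM to 58.6 nM (0.3% DMSO) for 24 h at 37° C; supernatant cytokine measured by MSD electrochemiluminescence sandwich immunoassay. DMSO wells set maximum signal, BTK inhibitor RN486 (30 nM to 131 pM) set maximum inhibition.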

[2] = molecular target: full-length MALT1 protein (Strep-MALT1(1-824)-His) (Homo sapiens (Human), UniProt Q9UDY8); test: MALT1 Biochemical Protease Assay (Ac-LRSR-AMC substrate); conditions: 10 nM FL MALT1, 200 μM Ac-LRSR-AMC, 4 h at RT; read-out: MALT1_Biochemical activity (Ac-LRSR-amc) IC50
Outline: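 Fluorescence from AMC release off the quenched LRSR substrate was read after a 4 h reaction at RT. Values were normalised to no-enzyme and uninhibited controls and fitted for IC50 and Hill coefficient.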

[3] = tested on: IL6 secretion by TMD8 ABC-DLBCL cells; test: Human IL6 Mesoscale assay (TMD-8); format: cell-based; conditions: Homo sapiens, TMD8; TMD-8 cells, 24 h
Outline: as §1

full-length MALT1 protein (Strep-MALT1(1-824)-His), sequence (Q9UDY8 whole entry): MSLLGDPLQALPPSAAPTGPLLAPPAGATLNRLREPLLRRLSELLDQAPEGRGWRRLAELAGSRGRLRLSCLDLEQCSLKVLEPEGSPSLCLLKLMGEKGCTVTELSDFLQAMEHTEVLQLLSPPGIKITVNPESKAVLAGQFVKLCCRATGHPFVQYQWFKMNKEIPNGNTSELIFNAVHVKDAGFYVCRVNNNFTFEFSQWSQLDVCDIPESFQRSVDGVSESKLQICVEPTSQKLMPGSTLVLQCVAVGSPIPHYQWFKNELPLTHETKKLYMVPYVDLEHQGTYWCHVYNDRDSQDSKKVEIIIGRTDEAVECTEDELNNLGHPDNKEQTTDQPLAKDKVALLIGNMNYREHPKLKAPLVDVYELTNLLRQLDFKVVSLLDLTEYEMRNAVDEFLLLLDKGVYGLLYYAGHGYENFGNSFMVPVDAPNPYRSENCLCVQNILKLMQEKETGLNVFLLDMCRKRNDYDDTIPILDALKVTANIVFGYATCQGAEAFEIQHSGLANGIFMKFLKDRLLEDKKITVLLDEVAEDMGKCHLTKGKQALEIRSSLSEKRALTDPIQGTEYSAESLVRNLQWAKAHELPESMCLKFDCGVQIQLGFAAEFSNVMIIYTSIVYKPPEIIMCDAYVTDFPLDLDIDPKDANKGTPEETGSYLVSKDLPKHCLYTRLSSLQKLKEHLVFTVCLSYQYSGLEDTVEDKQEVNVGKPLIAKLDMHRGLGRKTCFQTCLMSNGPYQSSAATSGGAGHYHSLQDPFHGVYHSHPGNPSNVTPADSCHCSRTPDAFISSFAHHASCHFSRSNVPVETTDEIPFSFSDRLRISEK

Row | IC50 [1] [nM] | IC50 [2] [nM] | IC50 [3] [nM] | SMILES
1 | 468 | 331 | 1510 | NCc1cnnn1-c1ncc(NC(=O)c2cnn(-c3cccc4ncccc34)c2C(F)(F)F)cc1Cl [Cpd 248, N-(6-(5-(aminomethyl)-1H-1,2,3-triazol-1-yl)-5-chloropyridin-3-yl)-1-(quinolin-5-yl)-5-(trifluoromethyl)-1H-pyrazole-4-carboxamide]
2 | 2510 | 1780 | 7590 | O=C(Nc1cnc(-n2nccn2)c(Cl)c1)c1cnn(-c2cnc([C@@H]3CCCO3)c3ccccc23)c1C(F)(F)F (single isomer, unassigned) [Cpd 437, (*S)—N-(5-chloro-6-(2H-1,2,3-triazol-2-yl)pyridin-3-yl)-1-(1-(tetrahydrofuran-2-yl)isoquinolin-4-yl)-5-(trifluoromethyl)-1H-pyrazole-4-carboxamide]
3 | 2140 | 71 | 6610 | O=C1CO[C@@H](c2ncc(-n3ncc(C(=O)Nc4cnc(-n5nccn5)c(Cl)c4)c3C(F)(F)F)c3ccccc23)C1 (single isomer, unassigned) [Cpd 438, (*R)—N-(5-chloro-6-(2H-1,2,3-triazol-2-yl)pyridin-3-yl)-1-(1-(4-oxotetrahydrofuran-2-yl)isoquinolin-4-yl)-5-(trifluoromethyl)-1H-pyrazole-4-carboxamide]
4 | 162 | 1580 | 186 | O=C(Nc1cnc(-n2nccn2)c(Cl)c1)c1cnn(-c2cccc3nc([C@H]4CCCO4)ccc23)c1C(F)(F)F (single isomer, unassigned) [Cpd 440, (*R)—N-(5-chloro-6-(2H-1,2,3-triazol-2-yl)pyridin-3-yl)-1-(2-(tetrahydrofuran-2-yl)quinolin-5-yl)-5-(trifluoromethyl)-1H-pyrazole-4-carboxamide]
5 | 21 | 107 | 56 | NC(=O)c1cc(-n2ncc(C(=O)Nc3cnc(-n4nccn4)c(Cl)c3)c2C(F)(F)F)c2ccccc2n1 [Cpd 386, 4-(4-((5-chloro-6-(2H-1,2,3-triazol-2-yl)pyridin-3-yl)carbamoyl)-5-(trifluoromethyl)-1H-pyrazol-1-yl)quinoline-2-carboxamide]
6 | 141 | 389 | 708 | Cc1nc2c(-n3ncc(C(=O)Nc4cnc(-n5nccn5)c(C#N)c4)c3C(F)(F)F)cccc2s1 [Cpd 245, N-(5-cyano-6-(2H-1,2,3-triazol-2-yl)pyridin-3-yl)-1-(2-methylbenzo[d]thiazol-4-yl)-5-(trifluoromethyl)-1H-pyrazole-4-carboxamide]
7 | 2690 | 162 | 5620 | Cc1nc(-n2nccn2)c(Cl)cc1NC(=O)c1cnn(-c2ccc(F)c3nccn23)c1C(F)(F)F [Cpd 203, N-(5-chloro-2-methyl-6-(2H-1,2,3-triazol-2-yl)pyridin-3-yl)-1-(8-fluoroimidazo[1,2-a]pyridin-5-yl)-5-(trifluoromethyl)-1H-pyrazole-4-carboxamide]
8 | 3020 | 123 | 2570 | COc1nccc2c(-n3ncc(C(=O)Nc4cnc(-n5nccn5)c(C#N)c4)c3C(F)(F)F)cccc12 [Cpd 281, N-(5-cyano-6-(2H-1,2,3-triazol-2-yl)pyridin-3-yl)-1-(1-methoxyisoquinolin-5-yl)-5-(trifluoromethyl)-1H-pyrazole-4-carboxamide]
9 | 363 | 98 | 933 | O=C(Nc1cnc(-n2nccn2)c(Cl)c1)c1cnn(-c2cnc(N3CC[C@@H](O)C3)c3sccc23)c1C(F)(F)F [Cpd 432, (R)—N-(5-chloro-6-(2H-1,2,3-triazol-2-yl)pyridin-3-yl)-1-(7-(3-hydroxypyrrolidin-1-yl)thieno[2,3-c]pyridin-4-yl)-5-(trifluoromethyl)-1H-pyrazole-4-carboxamide]
